According to patent US8299301B2 (priority 2007, dated 2012):
Read-outs that look alike come from different tables or passages of the source. Values belong to the molecule of their own block, whether it stands above or below them.

Experiments:
Sphaerotheca fuliginea = assay: Sphaerotheca test (cucumber) / protective; assay type: in vivo; settings: Podosphaera fuliginea, 168 h, read-out: efficacy
Description: Sphaerotheca Test (Cucumber)/Protective [table] To produce a suitable preparation of active compound, 1 part by weight of active compound is mixed with the stated amounts of solvent and emulsifier, and the concentrate is diluted with water to the desired concentration. To test for protective activity, young cucumber plants are sprayed with the active compound preparation at the stated application rate. 1 day after the treatment, the plants are inoculated with a spore suspension of Sphaerotheca fuliginea.

[1] = tested on: Erysiphe graminis f.sp. hordei; assay: Erysiphe test (barley) / protective; assay type: in vivo; settings: Blumeria graminis, 168 h, read-out: efficacy
Description: Erysiphe Test (Barley)/Protective
(§1) To produce a suitable preparation of active compound, 1 part by weight of active compound is mixed with the stated amounts of solvent and emulsifier, and the concentrate is diluted with water to the desired concentration.
To test for protective activity, young plants are sprayed with the active compound preparation at the stated application rate. After the spray coating has dried on, the plants are dusted with spores of Erysiphe graminis f.sp. hordei. The plants are placed in a greenhouse at a temperature of about 20° C. and a relative atmospheric humidity of about 80% to promote the development of mildew pustules.
Evaluation is carried out 7 days after the inoculation. 0% means an efficacy which corresponds to that of the control, whereas an efficacy of 100% means that no infection is observed.

Puccinia recondite = assay: Puccinia test (wheat) / protective; assay type: in vivo; settings: 240 h, read-out: efficacy
Description: Puccinia Test (Wheat)/Protective
as §1
To test for protective activity, young plants are sprayed with the active compound preparation at the stated application rate. After the spray coating has dried on, the plants are sprayed with a conidia suspension of Puccinia recondite. The plants remain in an incubation cabin at 20° C. and 100% relative atmospheric humidity for 48 hours. The plants are then placed in a greenhouse at a temperature of about 20° C. and a relative atmospheric humidity of 80% to promote the development of rust pustules.
Evaluation is carried out 10 days after the inoculation. 0% means an efficacy which corresponds to that of the control, whereas an efficacy of 100% means that no infection is observed.

[2] = pH 2.3
[3] = cucumber, protective, active compound concentration 500 ppm, evaluation 7 days after inoculation
[4] = barley, protective, active compound concentration 1000 ppm, evaluation 7 days after inoculation
[5] = wheat, protective, active compound concentration 1000 ppm, evaluation 10 days after inoculation

Molecule: CCN(C)C=Nc1cc(C(F)F)c(Oc2cccc(C(C)O)c2)cc1C (centres unmarked) [Compound 15, N-ethyl-N-methyl-N′-{4-[3-(1-hydroxyethyl)-phenoxy]-5-difluoromethyl-2-methylphenyl}formamidine]
logP (logP determination; logP acid, acid): 1.65
pest or weed control at 500 ppm (Sphaerotheca fuliginea): ≥ 70%

Molecule: CCN(C)C=Nc1cc(C(F)F)c(Oc2ccc(Cl)c(Cl)c2)cc1C [Compound 10, N-ethyl-N-methyl-N′-[4-(3,4-dichlorophenoxy)-5-difluoromethyl-2-methylphenyl]formamidine]
logP (logP determination; logP acid, acid): 2.31
pest or weed control at 1000 ppm [1]: ≥ 70%
pest or weed control at 500 ppm (Sphaerotheca fuliginea): ≥ 70%
pest or weed control at 1000 ppm (Puccinia recondite): ≥ 70%

Molecule: Cc1cc(Oc2ccc(Cl)c(C(F)(F)F)c2)c(C(F)(F)F)cc1N=CN1CCCCC1 [Compound 7, N-piperidinyl-N′-[4-(3-trifluoromethyl-4-chlorophenoxy)-5-trifluoromethyl-2-methylphenyl]formamidine]
logP acid (logP determination; acid): 2.98
logP neutral (logP determination; neutral): 6.19

Molecule: CCN(C)C=Nc1cc(C(F)(F)F)c(-c2ccc(C(C)(C)C)cc2)cc1C [Compound 12]
logP (logP determination; logP acid, acid): 2.74
logP (logP determination; logP neutral, neutral): 6.15
pest or weed control at 1000 ppm [1]: ≥ 70%
pest or weed control at 500 ppm (Sphaerotheca fuliginea): ≥ 70%
pest or weed control at 1000 ppm (Puccinia recondite): ≥ 70%

Molecule: CCN(C)C=Nc1cc(C(F)F)c(Oc2ccccc2)cc1C [Compound 13, N-ethyl-N-methyl-N′-[4-phenoxy-5-difluoromethyl-2-methylphenyl]formamidine]
logP (logP determination; logP acid, acid): 1.73
pest or weed control at 500 ppm (Sphaerotheca fuliginea): ≥ 70%

Molecule: Cc1c([N+](=O)[O-])ccc(Cl)c1C(F)(F)F [4-Chloro-3-trifluoromethyl-2-methylnitrobenzene]
log P (HCOOH) (logP determination; HCOOH): 3.60

Molecule: CCN(C)C=Nc1cc(C(F)(F)F)c(Oc2cccc(C(C)C)c2)cc1C [Compound 4, N-ethyl-N-methyl-N′-[4-(3-iso-propylphenoxy)-5-trifluoromethyl-2-methylphenyl]formamidine]
logP (logP determination; logP acid, acid): 2.65
logP (logP determination; logP neutral, neutral): 5.74
pest or weed control at 1000 ppm [1]: ≥ 70%
pest or weed control at 500 ppm (Sphaerotheca fuliginea): ≥ 70%
pest or weed control at 1000 ppm (Puccinia recondite): ≥ 70%

Molecule: Cc1cc(Oc2cccc(C(C)C)c2)c(C(F)F)cc1N=CN1CCCCC1 [Compound 14, N-piperidinyl-N'-[4-(3-iso-propylphenoxy)-5-difluoromethyl-2-methylphenyl]formamidine]
logP acid (logP determination; acid): 2.60

Molecule: CCN(C)C=Nc1cc(CF)c(-c2ccc(C(C)(C)C)cc2)cc1C [Compound 2, N-ethyl-N-methyl-N′-[4-(4-tert-butylphenyl)-5-fluoromethyl-2-methylphenyl]formamidine]
logP (logP determination; logP acid, acid): 2.67
pest or weed control at 1000 ppm [1, 4]: ≥ 70%
pest or weed control at 1000 ppm (Puccinia recondite; [5]): ≥ 70%

Further lines, with some results ahead:

logP (logP determination; logP acid, acid): 2.81
logP (logP determination; logP neutral, neutral): 5.77
Molecule: CCN(C)C=Nc1cc(C(F)(F)F)c(Oc2ccc(Cl)c(C(F)(F)F)c2)cc1C [Compound 5, N-ethyl-N-methyl-N′-[4-(3-trifluoromethyl-4-chlorophenoxy)-5-trifluoromethyl-2-methylphenyl]formamidine]
pest or weed control at 500 ppm (Sphaerotheca fuliginea; [3]): ≥ 70%

logP (logP determination; logP acid, acid): 3.26
logP (logP determination; logP neutral, neutral): 6.68
Molecule: CCN(C)C=Nc1cc(C(F)(F)F)c(Oc2ccc(Cl)c(C(C)(C)C)c2)cc1C [Compound 3, N-ethyl-N-methyl-N′-[4-(3-tert-butyl-4-chlorophenoxy)-5-trifluoromethyl-2-methylphenyl]formamidine]
pest or weed control at 1000 ppm [1, 4]: ≥ 70%
pest or weed control at 500 ppm (Sphaerotheca fuliginea; [3]): ≥ 70%
pest or weed control at 1000 ppm (Puccinia recondite; [5]): ≥ 70%

logP (logP determination; logP acid, acid): 2.93
Molecule: CCN(C)C=Nc1cc(CF)c(Oc2ccc(Cl)c(C(C)(C)C)c2)cc1C [Compound 1, N-ethyl-N-methyl-N′-[4-(3-tert-butyl-4-chlorophenoxy)-5-fluoromethyl-2-methylphenyl]formamidine]
pest or weed control at 1000 ppm [1, 4]: ≥ 70%
pest or weed control at 1000 ppm (Puccinia recondite; [5]): ≥ 70%

logP (logP determination; logP acid, acid): 2.5
Molecule: CCN(C)C=Nc1cc(C(F)F)c(Oc2cccc(C(C)C)c2)cc1C [Compound 18, N-ethyl-N-methyl-N′-[4-(3-iso-propylphenoxy)-5-difluoromethyl-2-methylphenyl]formamidine]

logP (logP determination; logP acid, acid): 2.97
Molecule: CCN(C)C=Nc1cc(C(F)F)c(Oc2ccc(Cl)c(C(C)C)c2)cc1C [Compound 17, N-ethyl-N-methyl-N′-[4-(3-isopropyl-4-chlorophenoxy)-5-difluoromethyl-2-methylphenyl]formamidine]

logP (logP determination; logP acid, acid): 2.82
Molecule: CCN(C)C=Nc1cc(C(F)F)c(Oc2ccc(Cl)c(C(C)(C)C)c2)cc1C [Compound 9, N-ethyl-N-methyl-N′-[4-(3-tert-butyl-4-chlorophenoxy)-5-difluoromethyl-2-methylphenyl]formamidine]
pest or weed control at 1000 ppm [1, 4]: ≥ 70%
pest or weed control at 500 ppm (Sphaerotheca fuliginea; [3]): ≥ 70%
pest or weed control at 1000 ppm (Puccinia recondite; [5]): ≥ 70%

logP (logP determination; logP acid, acid): 3.13
logP (logP determination; logP neutral, neutral): 6.3
Molecule: Cc1cc(Oc2ccc(Cl)c(C(C)(C)C)c2)c(C(F)(F)F)cc1N=CN(C)C [Compound 8, N,N-dimethyl-N′-[4-(3-tert-butyl-4-chlorophenoxy)-5-trifluoromethyl-2-methylphenyl]formamidine]
pest or weed control at 1000 ppm [1, 4]: ≥ 70%
pest or weed control at 500 ppm (Sphaerotheca fuliginea; [3]): ≥ 70%
pest or weed control at 1000 ppm (Puccinia recondite; [5]): ≥ 70%

logP (logP determination; logP acid, acid): 2.17
Molecule: CCN(C)C=Nc1cc(C(F)F)c(Oc2cccc(C(C)F)c2)cc1C (centres unmarked) [Compound 16, N-ethyl-N-methyl-N′-{4-[3-(1-fluoroethyl)-phenoxy]-5-difluoromethyl-2-methylphenyl}formamidine]
pest or weed control at 500 ppm (Sphaerotheca fuliginea; [3]): ≥ 70%

logP (logP determination; logP acid, acid): 3.01
logP (logP determination; logP neutral, neutral): 6.15
Molecule: CCCN(C)C=Nc1cc(C(F)(F)F)c(Oc2ccc(Cl)c(C(F)(F)F)c2)cc1C [Compound 6, N-propyl-N-methyl-N′-[4-(3-trifluoromethyl-4-chlorophenoxy)-5-trifluoromethyl-2-methylphenyl]formamidine]
pest or weed control at 1000 ppm [1, 4]: ≥ 70%
pest or weed control at 500 ppm (Sphaerotheca fuliginea; [3]): ≥ 70%
pest or weed control at 1000 ppm (Puccinia recondite; [5]): ≥ 70%

logP (logP determination; logP acid, acid): 2.52
logP (logP determination; logP neutral, neutral): 6.04
logP (logP determination; pH 2.3, log P (pH2.3), pH 2.3): 2.52
Molecule: CCN(C)C=Nc1cc(C(F)(F)F)c(Oc2cccc(C(C)(C)C)c2)cc1C [Compound 11, N-ethyl-N-methyl-N′-[4-(3-tert-butylphenoxy)-5-trifluoromethyl-2-methylphenyl]formamidine]

logP (logP determination; pH 2.3, log P (pH2.3), pH 2.3): 4.67
Molecule: Cc1cc(Oc2cccc(C(C)(C)C)c2)c(C(F)(F)F)cc1N [4-(3-tertButylphenoxy)-5-trifluoromethyl-2-methylaniline]

log P (pH2.3) [2]: 5.68
Molecule: 4-(3-tertButylphenoxy)-5-trifluoromethyl-2-methylnitrobenzene
